Read-outs that look alike come from different tables or passages of the source. Blank lines part the entries; values can stand above or below the compound they belong to.
Tests used:
[1] = biological target: T1, human serum albumin (HSA) (Homo sapiens, UniProt P02768); experiment: Excited-state fluorescence lifetime of HSA; assay type: binding; settings: compound 7 μM
Protocol: A fluorescence lifetime experiment was performed to discover the quenching mechanism of compounds 12 and 13 for interactions with HSA. The decay lifetime (τ) generally remains unaltered in ground state quenching while it gets changed in excited state quenching.[46,47] The fluorescence lifetime spectrum of HSA (7 μM) was performed upon increasing concentrations of compounds 12 and 13 (0–70 μM) (Fig. S65 ^†). […] Therefore, it can conclude that the fluorescence quenching of HSA by compounds 12 and 13 was characterized as a static quenching and thus formed a stable complex with HSA at the ground state.
Time-resolved fluorescence was recorded by taking a fixed amount of HSA (10 μM) with incremental additions of compounds (12 and 13) ([…]) by maintaining the ratio of HSA : compound = 1 : 0, 1 : 1, 1 : 5 and 1 : 10. The spectra were recorded at 345 nm emission wavelength in phosphate buffer of pH 7.4 at 298 K. To determine the average fluorescence lifetime (τ), the following eqn (7) was used.7 τ = ∑τiαiwhere τi and αi denote decay time and relative amplitude, respectively.

[2] = biological target: T1, human serum albumin (HSA); experiment: Excited-state fluorescence lifetime of HSA; assay type: binding
[3] = test system: HeLa (cervix) human cancer cell line; experiment: MTT cytotoxicity assay, HeLa; assay type: cell-based; settings: Homo sapiens, 48 h
Protocol: Human malignant cell lines, i.e., MCF7 (breast), HeLa (cervix), and A549 (lung), as well as non-cancerous human cell line Hek293 (kidney), were cultured using the Ham's media or DMEM having 10% FBS, […] streptomycin, 100 U ml^−1 penicillin, and 50 mM glutamine. For seeding of cells, 96 well plates were used, maintaining the density of […] cells per well with the help of DMEM as a media having 10% FBS cells. Then, seeded cells were incubated in an incubator having a 5% CO2 supply at 37 °C. Compounds were added to the wells at 1, 10, and 100 μM concentrations, and cells were incubated for 48 h at 37 °C and then added 10 μl of MTT to each well prepared from 5 mg ml^−1 stock solution using 1 × PBS buffer and were incubated for 4 h at 37 °C in the dark. DMSO (100 μl) was used to dissolve the formazan crystals. To determine the concentration of formazan, the crystal absorbance difference was recorded at 570 nm. The percentage of relative cell toxicity was calculated by using the following eqn (1):1 [drawing 1]

[4] = biological target: T1, human serum albumin (HSA); experiment: HSA fluorescence quenching (Stern–Volmer, modified Stern–Volmer, van't Hoff); assay type: binding; settings: for Kd: read-out: K b (binding constant, modified Stern–Volmer) (converted); for quenching of emission of HSA at 347 nm: HSA 10 μM, compound up to 33 μM, λex 280 nm; for ΔH of HSA binding / ΔS of HSA binding: van't Hoff plot, 298–318 K
Protocol: The binding of compounds to HSA can affect the fluorescence of these fluorophores.[34–36] […] Incremental addition of compounds 12 and 13 (33 μM) led to good quenching (90–95%) of emission of HSA at 347 nm (Fig. 5, S58, and S59 ^†), which indeed indicated the binding of compounds to HSA. Fluorescence quenching data have been analyzed using the Stern–Volmer equation eqn (3)[38] at three different temperatures, i.e., 298 K, […], and 318 K, where Stern–Volmer plots were obtained (Fig. S60 and S61 ^†). Good linearity of plots was observed having a correlation coefficient (R) ≥ 0.9396 throughout all the experiments. The values of the Stern–Volmer quenching constant (KSV), a measure of fluorescence quenching efficiency of the analyte, were calculated from these plots and are reported in Table 2. The fluorescence quenching mechanism, whether dynamic or static quenching, can be investigated using the dependency of KSV values on temperature. […] Thus, the detected quenching in fluorescence of HSA on the addition of compounds 12 and 13 appears as a result of complex formation between compound and HSA. […] Thus, in the present study, the static quenching phenomenon has occurred in the quenching process for represented HSA–compound systems.
To record the emission spectra, a fixed amount of HSA (10 μM) was titrated with increasing concentration of compounds 12 and 13 (33 μM) in phosphate buffer of pH 7.4 at 298 K, 308 K, and 318 K. All spectra were recorded in the range of 200–800 nm at excitation wavelength 280 nm and a constant slit width was used for excitation and emission throughout the experiments.
To determine the quenching constant, following Stern–Volmer eqn (3) was used.3 [drawing 3] where, F0 and F denote the emission intensity of HSA in free form and the presence of compounds 12 and 13, respectively. The plots of F0/F versus [compound] were used to determine the Stern–Volmer quenching constants (KSV) and bimolecular quenching constants (Kq).
Further to determine the binding constants (Kb) and the average number of binding sites (n), the following modified Stern–Volmer eqn (4) was used.4 [drawing 4] where F0 and F are the same as in eqn (3). The values of Kb and n were determined from intercept and slope, respectively, as log{(F0 − F)/F versus log[compound]} plots.
The thermodynamic parameters such as the change in enthalpy (ΔH) and change in entropy (ΔS) were determined by following the van't Hoff eqn (5):5 [drawing 5] R and T denote the gas constant and absolute temperature, respectively.
The change in free energy (ΔG) for various temperatures was determined by the following eqn (6):6 ΔG = ΔH − TΔS

[5] = biological target: T1, human serum albumin (HSA); experiment: as above; assay type: binding; settings: 308 K

T1 sequence (P02768 25-609): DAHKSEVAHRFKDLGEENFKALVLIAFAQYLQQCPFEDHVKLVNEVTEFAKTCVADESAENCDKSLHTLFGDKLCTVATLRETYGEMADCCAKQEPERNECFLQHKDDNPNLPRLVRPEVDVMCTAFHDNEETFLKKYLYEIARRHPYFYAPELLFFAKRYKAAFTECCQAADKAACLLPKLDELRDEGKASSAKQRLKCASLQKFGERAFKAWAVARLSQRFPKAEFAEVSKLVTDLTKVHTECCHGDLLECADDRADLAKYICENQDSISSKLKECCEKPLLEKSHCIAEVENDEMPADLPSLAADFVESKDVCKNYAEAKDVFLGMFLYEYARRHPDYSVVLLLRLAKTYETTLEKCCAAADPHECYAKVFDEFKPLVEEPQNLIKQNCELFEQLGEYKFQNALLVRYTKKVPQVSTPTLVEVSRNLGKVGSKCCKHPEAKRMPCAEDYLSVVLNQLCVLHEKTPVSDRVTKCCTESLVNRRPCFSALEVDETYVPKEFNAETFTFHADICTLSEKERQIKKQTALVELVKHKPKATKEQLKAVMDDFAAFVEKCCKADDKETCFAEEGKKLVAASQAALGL

α 1 of HSA fluorescence decay [1]: 0.41 | α 2 of HSA fluorescence decay [1]: 0.23 | α 3 of HSA fluorescence decay [1]: 0.36 | τ 3 of HSA fluorescence decay [1]: 0.84 ns | τ (average fluorescence lifetime of HSA) [1]: 3.25 ns | τ 1 of HSA fluorescence decay ([2]; compound 7 μM): 3.19 ns | τ 2 of HSA fluorescence decay ([2]; compound 7 μM): 7.17 ns | α 1 of HSA fluorescence decay ([2]; compound 35 μM): 0.39 | α 2 of HSA fluorescence decay ([2]; compound 35 μM): 0.24 | α 3 of HSA fluorescence decay ([2]; compound 35 μM): 0.37 | τ 1 of HSA fluorescence decay ([2]; compound 35 μM): 3.12 ns | τ 2 of HSA fluorescence decay ([2]; compound 35 μM): 6.97 ns | τ 3 of HSA fluorescence decay ([2]; compound 35 μM): 0.85 ns | τ (average fluorescence lifetime of HSA) ([2]; compound 35 μM): 3.19 ns | α 1 of HSA fluorescence decay ([2]; compound 70 μM): 0.39 | α 2 of HSA fluorescence decay ([2]; compound 70 μM): 0.19 | α 3 of HSA fluorescence decay ([2]; compound 70 μM): 0.41 | τ 1 of HSA fluorescence decay ([2]; compound 70 μM): 3.36 ns | τ 2 of HSA fluorescence decay ([2]; compound 70 μM): 7.25 ns | τ 3 of HSA fluorescence decay ([2]; compound 70 μM): 0.86 ns | τ (average fluorescence lifetime of HSA) ([2]; compound 70 μM): 3.08 ns | melting point: 282 to 285 °C | K SV (Stern–Volmer quenching constant) ([4]; 298 K): 2.58 10^6 M^−1 | K q (bimolecular quenching rate constant) ([4]; 298 K): 2.58 10^14 M^−1 s^−1 | n (average number of binding sites) ([4]; 298 K): 1.17 | ΔG of HSA binding ([4]; 298 K): -8.37 kJ/M | Kd ([4]; 298 K): 662 nM | Kd ([4]; 308 K): 2780 nM | K SV (Stern–Volmer quenching constant) ([4]; 318 K): 0.30 10^6 M^−1 | K q (bimolecular quenching rate constant) ([4]; 318 K): 0.30 10^14 M^−1 s^−1 | n (average number of binding sites) ([4]; 318 K): 1.00 | ΔG of HSA binding ([4]; 318 K): -7.49 kJ/M | Kd ([4]; 318 K): 6670 nM | quenching of emission of HSA at 347 nm [4]: 90–95% | ΔH of HSA binding [4]: -21.41 kJ/M | ΔS of HSA binding [4]: −43.76 J M^−1 K^−1 | K SV (Stern–Volmer quenching constant) [5]: 2.38 10^6 M^−1 | K q (bimolecular quenching rate constant) [5]: 2.38 10^14 M^−1 s^−1 | n (average number of binding sites) [5]: 1.07 | ΔG of HSA binding [5]: -7.93 kJ/M
Structure (SMILES): C#CCN1C(=O)c2cccc3c(-c4ccc5c(c4)c(-c4nc6ccccc6s4)cn5CC=C)ccc(c23)C1=O [Compound 13, 6-(1-Allyl-3-(benzo[d]thiazol-2-yl)-1H-indol-5-yl)-2-(prop-2-yn-1-yl)-1H-benzo[de]isoquinoline-1,3(2H)-dione]
IC50 [3]: 3.64 ± 0.19 µM

α 1 of HSA fluorescence decay [1]: 0.42 | α 2 of HSA fluorescence decay [1]: 0.20 | α 3 of HSA fluorescence decay [1]: 0.38 | τ 3 of HSA fluorescence decay [1]: 0.80 ns | τ (average fluorescence lifetime of HSA) [1]: 3.13 ns | τ 1 of HSA fluorescence decay ([2]; compound 7 μM): 3.29 ns | τ 2 of HSA fluorescence decay ([2]; compound 7 μM): 7.32 ns | α 1 of HSA fluorescence decay ([2]; compound 35 μM): 0.41 | α 2 of HSA fluorescence decay ([2]; compound 35 μM): 0.18 | α 3 of HSA fluorescence decay ([2]; compound 35 μM): 0.40 | τ 1 of HSA fluorescence decay ([2]; compound 35 μM): 3.37 ns | τ 2 of HSA fluorescence decay ([2]; compound 35 μM): 7.34 ns | τ 3 of HSA fluorescence decay ([2]; compound 35 μM): 0.86 ns | τ (average fluorescence lifetime of HSA) ([2]; compound 35 μM): 3.09 ns | α 1 of HSA fluorescence decay ([2]; compound 70 μM): 0.39 | α 2 of HSA fluorescence decay ([2]; compound 70 μM): 0.20 | α 3 of HSA fluorescence decay ([2]; compound 70 μM): 0.41 | τ 1 of HSA fluorescence decay ([2]; compound 70 μM): 3.14 ns | τ 2 of HSA fluorescence decay ([2]; compound 70 μM): 7.03 ns | τ 3 of HSA fluorescence decay ([2]; compound 70 μM): 0.80 ns | τ (average fluorescence lifetime of HSA) ([2]; compound 70 μM): 2.97 ns | melting point: 292 to 295 °C | K SV (Stern–Volmer quenching constant) ([4]; 298 K): 10.46 10^6 M^−1 | K q (bimolecular quenching rate constant) ([4]; 298 K): 10.46 10^14 M^−1 s^−1 | n (average number of binding sites) ([4]; 298 K): 1.32 | ΔG of HSA binding ([4]; 298 K): -9.27 kJ/M | Kd ([4]; 298 K): 136 nM | Kd ([4]; 308 K): 658 nM | K SV (Stern–Volmer quenching constant) ([4]; 318 K): 1.27 10^6 M^−1 | K q (bimolecular quenching rate constant) ([4]; 318 K): 1.27 10^14 M^−1 s^−1 | n (average number of binding sites) ([4]; 318 K): 1.30 | ΔG of HSA binding ([4]; 318 K): -8.46 kJ/M | Kd ([4]; 318 K): 1190 nM | quenching of emission of HSA at 347 nm [4]: 90–95% | ΔH of HSA binding [4]: -21.32 kJ/M | ΔS of HSA binding [4]: −40.44 J M^−1 K^−1 | K SV (Stern–Volmer quenching constant) [5]: 5.19 10^6 M^−1 | K q (bimolecular quenching rate constant) [5]: 5.19 10^14 M^−1 s^−1 | n (average number of binding sites) [5]: 1.17 | ΔG of HSA binding [5]: -8.87 kJ/M
Structure (SMILES): C=CCn1cc(-c2nc3ccccc3s2)c2cc(-c3ccc4c5c(cccc35)C(=O)N(CCO)C4=O)ccc21 [Compound 12, 6-(1-Allyl-3-(benzo[d]thiazol-2-yl)-1H-indol-5-yl)-2-(2-hydroxyethyl)-1H-benzo[de]isoquinoline-1,3(2H)-dione]
IC50 [3]: 3.76 ± 0.2 µM

Reference: PMC8694140, “Synthesis and photobiological applications of naphthalimide–benzothiazole conjugates: cytotoxicity and topoisomerase IIα inhibition” (RSC Advances, 2021)
